Experiments:
[1] = test system: CD4 cells, isolated from healthy donor PMBCs, infected with HIV VSV-G pseudotyped GFP-GAG reporter virus; experiment: tissue or blood; type: cell-based; details: Homo sapiens, 72 h
[2] = test system: monocytic THP1 cells infected with HIV VSV-G pseudotyped GFP-NEF reporter virus; experiment: cells; type: cell-based; details: Human immunodeficiency virus 1, THP-1, 24 h

| Structure (SMILES) | EC50 [1] [nM] | EC50 [2] [nM] |
| --- | --- | --- |
| Cc1cc(/C=C/C#N)cc(C)c1Oc1nc(NC23CC(C#N)(C2)C3)nc2[nH]ncc12 [Compound 10, (E)-3-((4-(4-(2-cyanovinyl)-2,6-dimethylphenoxy)-1H-pyrazolo[3,4-d]pyrimidin-6-yl)amino)bicyclo[1.1.1]pentane-1-carbonitrile] | 54.7 | 65.9 |
| Cc1nc2nc(NC34CC(C#N)(C3)C4)nc(Oc3c(C)cc(/C=C/C#N)cc3C)c2[nH]1 [Compound 14, (E)-3-((6-(4-(2-cyanovinyl)-2,6-dimethylphenoxy)-8-methyl-7H-purin-2-yl)amino)bicyclo[1.1.1]pentane-1-carbonitrile] | 84.2 | 81.3 |
| Cc1cc(/C=C/C#N)cc(C)c1Nc1nc(NC23CC(C#N)(C2)C3)nc2scnc12 [Compound 23, (E)-3-((7-((4-(2-cyanovinyl)-2,6-dimethylphenyl)amino)thiazolo[5,4-d]pyrimidin-5-yl)amino)bicyclo[1.1.1]pentane-1-carbonitrile] | 17 | 31.7 |
| Cc1cc(/C=C/C#N)cc(C)c1Oc1nc(NC23CC(C#N)(C2)C3)nc2[nH]c(=O)[nH]c12 [Compound 27, (E)-3-((6-(4-(2-cyanovinyl)-2,6-dimethylphenoxy)-8-oxo-8,9-dihydro-7H-purin-2-yl)amino)bicyclo[1.1.1]pentane-1-carbonitrile] | 99.4 | 68.3 |
| COc1ccc(Cn2cnc3c(Oc4c(C)cc(/C=C/C#N)cc4C)nc(NC45CC(C#N)(C4)C5)nc32)cc1 [Compound 42, (E)-3-((6-(4-(2-cyanovinyl)-2,6-dimethylphenoxy)-9-(4-methoxybenzyl)-9H-purin-2-yl)amino)bicyclo[1.1.1]pentane-1-carbonitrile] | 894 | 518 |
| COc1ccc(Cn2cnc3nc(NC45CC(C#N)(C4)C5)nc(Oc4c(C)cc(/C=C/C#N)cc4C)c32)cc1 [Compound 43, (E)-3-((6-(4-(2-cyanovinyl)-2,6-dimethylphenoxy)-7-(4-methoxybenzyl)-7H-purin-2-yl)amino)bicyclo[1.1.1]pentane-1-carbonitrile] | 87.7 | 90.5 |
| Cc1cc(/C=C/C#N)cc(C)c1Oc1nc(NC23CC(C#N)(C2)C3)nc2nc(C3CC3)[nH]c12 [Compound 49, (E)-3-((6-(4-(2-cyanovinyl)-2,6-dimethylphenoxy)-8-cyclopropyl-7H-purin-2-yl)amino)bicyclo[1.1.1]pentane-1-carbonitrile] | 166 | 110 |
| Cc1cc(/C=C/C#N)cc(C)c1Oc1nc(NC23CC(C#N)(C2)C3)nc2nc(C3CCC3)[nH]c12 [Compound 50, (E)-3-((6-(4-(2-cyanovinyl)-2,6-dimethylphenoxy)-8-cyclobutyl-7H-purin-2-yl)amino)bicyclo[1.1.1]pentane-1-carbonitrile] | 151 | 166 |
| Cc1nc2c(Nc3c(C)cc(/C=C/C#N)cc3C)nc(NC34CC(C#N)(C3)C4)nc2s1 [Compound 55, (E)-3-((7-((4-(2-cyanovinyl)-2,6-dimethylphenyl)amino)-2-methylthiazolo[5,4-d]pyrimidin-5-yl)amino)bicyclo[1.1.1]pentane-1-carbonitrile] | 25.9 | 130 |
| Cc1cc(/C=C/C#N)cc(C)c1Oc1nc(NC23CC(C#N)(C2)C3)nc2scnc12 [Compound 56, (E)-3-((7-(4-(2-cyanovinyl)-2,6-dimethylphenoxy)thiazolo[5,4-d]pyrimidin-5-yl)amino)bicyclo[1.1.1]pentane-1-carbonitrile] | 96.6 | 142 |
| Cc1cc(/C=C/C#N)cc(C)c1Oc1nc(NC23CC(C#N)(C2)C3)nc2nc(C(C)(C)O)[nH]c12 [Compound 60, (E)-3-((6-(4-(2-cyanovinyl)-2,6-dimethylphenoxy)-8-(2-hydroxypropan-2-yl)-7H-purin-2-yl)amino)bicyclo[1.1.1]pentane-1-carbonitrile] | 175 | 373 |
| Cc1cc(/C=C/C#N)cc(C)c1Oc1nc(NC23CC(C#N)(C2)C3)nc2nc(-c3cnn(C)c3)[nH]c12 [Compound 64, (E)-3-((6-(4-(2-cyanovinyl)-2,6-dimethylphenoxy)-8-(1-methyl-1H-pyrazol-4-yl)-7H-purin-2-yl)amino)bicyclo[1.1.1]pentane-1-carbonitrile] | 274 | 123 |
| Cc1cc(/C=C/C#N)cc(C)c1Oc1nc(NC23CC(C#N)(C2)C3(F)F)nc2nn(C)cc12 [Compound 76, (E)-3-((4-(4-(2-cyanovinyl)-2,6-dimethylphenoxy)-2-methyl-2H-pyrazolo[3,4-d]pyrimidin-6-yl)amino)-2,2-difluorobicyclo[1.1.1]pentane-1-carbonitrile] | 19.3 | 25.3 |
| Cc1cc(/C=C/C#N)cc(C)c1Oc1nc(NC23CC(C#N)(C2)C3)nc2[nH]nnc12 [Compound 80, €-3-((7-(4-(2-cyanovinyl)-2,6-dimethylphenoxy)-3H-[1,2,3]triazolo[4,5-d]pyrimidin-5-yl)amino)bicyclo[1.1.1]pentane-1-carbonitrile] | 551 | 593 |
| Cc1cc(/C=C/C#N)cc(C)c1OC1=NC(NC23CC(C#N)(C2)C3)=NC2N=CN(C)C12 (stereo not drawn) [Compound 89, (E)-3-((6-(4-(2-cyanovinyl)-2,6-dimethylphenoxy)-7-methyl-4,5-dihydro-7H-purin-2-yl)amino)bicyclo[1.1.1]pentane-1-carbonitrile] | 16.6 | 24.4 |
| Cc1cc(/C=C/C#N)cc(C)c1Oc1nc(NC23CC(C#N)(C2)C3)nc2nc(C)n(C)c12 [Compound 97, (E)-3-((6-(4-(2-cyanovinyl)-2,6-dimethylphenoxy)-7,8-dimethyl-7H-purin-2-yl)amino)bicyclo[1.1.1]pentane-1-carbonitrile] | 51.1 | 32.5 |
| Cc1cc(/C=C/C#N)cc(C)c1Oc1nc(NC23CC(C#N)(C2)C3)nc2ncn(CC(F)(F)F)c12 [Compound 106, (E)-3-((6-(4-(2-cyanovinyl)-2,6-dimethylphenoxy)-7-(2,2,2-trifluoroethyl)-7H-purin-2-yl)amino)bicyclo[1.1.1]pentane-1-carbonitrile] | 237 | 216 |
| Cc1cc(/C=C/C#N)cc(C)c1Oc1nc(NC23CC(C#N)(C2)C3)nc2[nH]nc(C#N)c12 [Compound 112, (E)-6-((3-cyanobicyclo[1.1.1]pentan-1-yl)amino)-4-(4-(2-cyanovinyl)-2,6-dimethylphenoxy)-1H-pyrazolo[3,4-d]pyrimidine-3-carbonitrile] | 294 | 745 |
| Cc1cc(/C=C/C#N)cc(C)c1Oc1nc(NC23CC(C#N)(C2)C3)nc2c1ncn2C(C)C [Compound 113, (E)-3-((6-(4-(2-cyanovinyl)-2,6-dimethylphenoxy)-9-isopropyl-9H-purin-2-yl)amino)bicyclo[1.1.1]pentane-1-carbonitrile] | 102 | 168 |
| Cc1cc(/C=C/C#N)cc(C)c1Oc1nc(NC23CC(C#N)(C2)C3)nc2cc[nH]c12 [Compound 115, (E)-3-((4-(4-(2-cyanovinyl)-2,6-dimethylphenoxy)-5H-pyrrolo[3,2-d]pyrimidin-2-yl)amino)bicyclo[1.1.1]pentane-1-carbonitrile] | 111 | 99.4 |
| Cc1cc(/C=C/C#N)cc(C)c1Oc1nc(NC23CC(C#N)(C2)C3)nc2[nH]nc(C)c12 [Compound 119, 3-[[4-[4-[(E)-2-cyanovinyl]-2,6-dimethyl-phenoxy]-3-methyl-1H-pyrazolo[3,4-d]pyrimidin-6-yl]amino]bicyclo[11.1.1]pentane-1-carbonitrile] | 16.9 | 19.3 |
| Cc1cc(/C=C/C#N)cc(C)c1Oc1nc(NC23CC(C#N)(C2)C3)nc2nn(C)cc12 [Compound 120, 3-[[4-[4-[(E)-2-cyanovinyl]-2,6-dimethyl-phenoxy]-2-methyl-pyrazolo[3,4-d]pyrimidin-6-yl]amino]bicyclo[1.1.1]pentane-1-carbonitrile] | 22.9 | 21.1 |
| Cc1cc(/C=C/C#N)cc(C)c1Oc1nc(NC23CC(C#N)(C2)C3)nc2cnn(C)c12 [Compound 122] | 47.3 | 54 |
| Cc1nc2nc(NC34CC(C#N)(C3)C4)nc(Oc3c(C)cc(/C=C/C#N)cc3C)c2s1 [Compound 124, 3-[[7-[4-[(E)-2-cyanovinyl]-2,6-dimethyl-phenoxy]-2-methyl-thiazolo[4,5-d]pyrimidin-5-yl]amino]bicyclo[11.1.1]pentane-1-carbonitrile] | 27 | 61.7 |
| Cc1cc(/C=C/C#N)cc(C)c1Oc1nc(NC23CC(C#N)(C2)C3)nc2c1cnn2C [Compound 128, 3-[[4-[4-[(E)-2-cyanovinyl]-2,6-dimethyl-phenoxy]-1-methyl-pyrazolo[3,4-d]pyrimidin-6-yl]amino]bicyclo[11.1.1]pentane-1-carbonitrile] | 106 | 131 |
| Cc1cc(/C=C/C#N)cc(C)c1Oc1nc(NC23CC(C#N)(C2)C3)nc2c1nnn2C [Compound 129, 3-[[7-[4-[(E)-2-cyanovinyl]-2,6-dimethyl-phenoxy]-3-methyl-triazolo[4,5-d]pyrimidin-5-yl]amino]bicyclo[11.1.1]pentane-1-carbonitrile] | 131 | 168 |
| Cc1cc(/C=C/C#N)cc(C)c1Oc1nc(NC23CC(C#N)(C2)C3)nc2c1C[N+](C)(C)C2 [Compound 152, (E)-2-((3-cyanobicyclo[1.1.1]pentan-1-yl)amino)-4-(4-(2-cyanovinyl)-2,6-dimethylphenoxy)-6,6-dimethyl-6,7-dihydro-5H-pyrrolo[3,4-d]pyrimidin-6-ium] | 3360 |  |
| Cc1cc(/C=C/C#N)cc(C)c1Oc1nc(NC23CC(CC(F)F)(C2)C3)nc2nc[nH]c12 [Compound 155, (E)-3-(4-((2-((3-(2,2-difluoroethyl)bicyclo[1.1.1]pentan-1-yl)amino)-7H-purin-6-yl)oxy)-3,5-dimethylphenyl)acrylonitrile] | 419 |  |

From patent publication US20250333424A1, “ANTIVIRAL COMPOUNDS” (Gilead Sciences, Inc., priority 2024, published 2025)
